Read-outs that look alike come from different tables or passages of the source.
Columns and labels:
[1] = biological target: dipeptidyl peptidase IV (DPP-IV) (Homo sapiens, UniProt P27487); conditions: proteolytic enzyme DPP-IV; cited from earlier work
INS-1 cells [2] = format: cell-based, rat; conditions: for cell viability values: 24 hours, INS-1 cells, control 100±3.3%
Experimental: (§1) INS-1 cell strain from rat origin used in the studies was proliferated by performing routine passages once per week. The cells were grown under 1 atm pressure, in the incubator containing 5% CO2 and 95% air, in powder RPMI 1640 medium containing heat inactivated 10% fetal bovine serum (FBS) and antibiotics (100 unit/ml penicillin G100, 100 µg/ml streptomycin), 1% sodium pyruvate, hepes, sodium bicarbonate and beta-mercaptoethanol at 37 °C. The cells produced in 75 cm^2 sterile culture plate were used for the experiment when they covered 60-80% of the culture plate.
(§2) The cells to be used in the experiments were removed from the surface of culture plate where they stuck, when they cover 60-80% of the culture plate, by using trypsin. In order to prevent the effect of trypsin to cells whose removal was monitored under microscope, the medium with the equal amount as trypsin was added and the cell suspension was collected in the centrifuge tube and centrifuged in 1500 rpm for 5 minutes. The supernatant was removed after centrifuge, the medium was added to the cells remained in the bottom part of the tube and pipetted in order to form single cell suspension. The total amount of cells was calculated by using hemocytometer. 50 000 INS-1 beta cells taken from 100% viable single cell suspension, whose cell amount was calculated, were cultured to each of the culture plates with 96 wells. The cultured cells were incubated at 37 °C for 24 hours in order to provide the sticking to the surface of culture plate and growing. After 24 of incubation, the cells were treated with 0.25 mM, 0.5 mM, 0.75 mM, 1 mM, 1.25 mM, 1.5 mM, 1.75 mM, 2 mM, 2.5 mM, 2.75 mM, 3 mM, 3.25 mM, 3.5 mM, 3.75 mM,4 mM, 4.25 mM, 4.5 mM, 4.75 mM, 5 mM palmitic acid which were the chosen doses for palmitic acid. 10 wells including the control group were used in the experiments and 24-hour experiment groups were formed for each of the concentrations.
(§3) After the removal of the grown cells by trypsin, culturing was performed to 96 wells in a way such that there would be 50 000 cells in 200 µl. The cultured cells were incubated at 37 °C for 24 hours in order to provide growing. After 24 h of incubation, the cells were treated with 1nM, 10nM, 100nM curaglutide which were the chosen doses. 10 wells including the control group were used in the experiments and 24-hour experiment groups have been formed for each of the concentrations.
(§4) MTT ([3-(4, 5-dimethyl tiazol-2-il)-2, 5 diphenyl tetrazolium bromide]) test is a drug sensitivity test based on cell culture principal, it aims to assess the cell growth and/or cell death in an indirect way. This frequently used test differs from the other testing methods, with the advantages that it is fast, sensitive, reproducible and easy to apply. The cracking of the tetrazolium ring of MTT paint by mitochondria in living cells underlies the basis of this method. This reaction is catalyzed by succinate dehydrogenase which is a mitochondrial enzyme. MTT is absorbed to cells actively and it is reduced to formazan which is non-soluble in water and has blue-purple color, by the reaction taking place in mitochondria. The MTT reducing properties of the cells are accepted as the cell viability criteria and they are directly proportionate to the paint density and living cell amount obtained by MTT analyze. While living cells with non-damaged mitochondria function are painted with purple color, cells that are dead or with damaged mitochondria function are not painted. Following bringing the formazan crystals formed by incubated living cells into soluble form, reaction product is read […].
(§5) 50 mg MTT (AppliChem A2231 0001) was weighed, it was dissolved by completing 10 ml with RPMI 1640 medium via vortex, with paying attention that there are no not-dissolved paint particles left, and they were obtained by filtering through 0.22 µm filter. It was used by preparing a fresh one each time. […]

[3] = Cell viability by MTT test; format: cell-based, rat; conditions: rat, 24 h, INS-1 cells, control 100%
Experimental: as §1
as §2, with “[…],” for “2 mM, 2.5 mM,”
as §3, §4, §5

INS-1 cells [4] = assay: Cell viability by MTT test; format: cell-based, rat; conditions: 2 mM palmitic acid, repetitive experiments
Experimental: as §1
as §2, with “[…],” for “2 mM, 2.5 mM,”
as §3, §4, §5

dipeptidyl peptidase IV (DPP-IV), sequence (P27487 whole entry, species assumed): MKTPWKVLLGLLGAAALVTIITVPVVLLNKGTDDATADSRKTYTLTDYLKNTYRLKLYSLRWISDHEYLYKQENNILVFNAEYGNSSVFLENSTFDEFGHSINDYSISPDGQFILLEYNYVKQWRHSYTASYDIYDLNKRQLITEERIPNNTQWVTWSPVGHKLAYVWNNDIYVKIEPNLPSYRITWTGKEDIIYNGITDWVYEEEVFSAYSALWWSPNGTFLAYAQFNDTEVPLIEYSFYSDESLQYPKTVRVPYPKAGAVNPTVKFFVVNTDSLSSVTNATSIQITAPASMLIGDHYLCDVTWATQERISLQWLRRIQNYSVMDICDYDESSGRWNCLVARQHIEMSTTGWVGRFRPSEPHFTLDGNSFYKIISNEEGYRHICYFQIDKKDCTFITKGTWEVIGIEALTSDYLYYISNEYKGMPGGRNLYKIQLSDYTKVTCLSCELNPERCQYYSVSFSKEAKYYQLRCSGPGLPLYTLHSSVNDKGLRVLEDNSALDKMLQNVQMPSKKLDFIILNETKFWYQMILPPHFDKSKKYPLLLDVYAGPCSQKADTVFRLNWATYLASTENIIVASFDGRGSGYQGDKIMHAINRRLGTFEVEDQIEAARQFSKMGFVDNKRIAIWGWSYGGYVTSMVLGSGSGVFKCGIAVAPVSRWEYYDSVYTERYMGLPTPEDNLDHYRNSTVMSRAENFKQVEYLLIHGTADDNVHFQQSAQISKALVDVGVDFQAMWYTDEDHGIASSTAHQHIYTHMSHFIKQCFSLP

For `CC[C@H](C)[C@H](NC(=O)[C@H](Cc1ccccc1)NC(=O)[C@H](CCC(=O)O)NC(=O)[C@H](CCCCN)NC(=O)[C@H](C)NC(=O)[C@H](C)NC(=O)[C@H](CCC(N)=O)NC(=O)CNC(=O)[C@H](CCC(=O)O)NC(=O)[C@H](CC(C)C)NC(=O)[C@H](Cc1ccc(O)cc1)NC(=O)[C@H](CO)NC(=O)[C@H](CO)NC(=O)[C@@H](NC(=O)[C@H](CC(=O)O)NC(=O)[C@H](CO)NC(=O)[C@@H](NC(=O)[C@H](Cc1ccccc1)NC(=O)[C@@H](NC(=O)CNC(=O)[C@H](CCC(=O)O)NC(=O)[C@H](C)NC(=O)[C@H](Cc1c[nH]cn1)NC(C)=O)[C@@H](C)O)[C@@H](C)O)C(C)C)C(=O)N[C@@H](C)C(=O)N[C@@H](Cc1c[nH]c2ccccc12)C(=O)N[C@@H](CC(C)C)C(=O)N[C@H](C(=O)N[C@@H](CCCCN)C(N)=O)C(C)C` [curaglutide], the “destruction by DPP-IV” value [1] is given as “resistant to destruction by DPP-IV”, the cell viability values (INS-1 cells [2]; 1 nM curaglutide alone) is given as 104.50±3.70% and the cell viability values (INS-1 cells [2]; 10 nM curaglutide alone) is given as 121.80±7.30%. For the same compound, the “% cell viability values” (INS-1 cells [2]; 10 nM curaglutide as curative agent (24 h after 24 h palmitic acid) for 1.75 mM palmitic acid (autophagic dose)) was 78.3±1.6%, the “% cell viability values” (INS-1 cells [2]; 10 nM curaglutide as curative agent for 2 mM palmitic acid (apoptotic dose)) was 60.9±4.3% and the “% cell viability values” (INS-1 cells [2]; 10 nM curaglutide as curative agent for 3 mM palmitic acid (necrotic dose)) was 56.5±1.7%. The “% cell viability values” (INS-1 cells [2]; 10 nM curaglutide as curative agent for 4 mM palmitic acid) was 46.6±5.8%, the “% cell viability values” (INS-1 cells [2]; 10 nM curaglutide as protective against 3 mM palmitic acid (necrotic dose)) was 56.4±4.7% and the “% cell viability values” (INS-1 cells [2]; 10 nM curaglutide as protector (24 h pre-treatment, then with palmitic acid 24 h) against 1.75 mM palmitic acid (autophagic dose)) was 129.9±4.6%. For the same compound, the “% cell viability values” (INS-1 cells [2]; 10 nM curaglutide as protector against 2 mM palmitic acid (apoptotic dose)) was 103.9±0.6%, the “% cell viability values” (INS-1 cells [2]; 10 nM curaglutide as protector against 4 mM palmitic acid) was 52.2±4.6% and the cell viability values (INS-1 cells [2]; 100 nM curaglutide alone) was 115.20±3.30%.
`CCCCCCCCCCCCCCCC(=O)O` [palmitic acid] gave a viability at 24 h, 0.25 mM ([3]; 0.25 mM palmitic acid) of 92 ± 2.4%, a viability at 24 h, 0.5 mM ([3]; 0.5 mM palmitic acid) of 81.5 ± 7.6% and a viability at 24 h, 0.75 mM ([3]; 0.75 mM palmitic acid) of 75.6 ± 4.37%. For the same compound, the viability at 24 h, 1 mM ([3]; 1 mM palmitic acid) was 74.8 ± 2.35%, the viability at 24 h, 1.25 mM ([3]; 1.25 mM palmitic acid) was 72.7 ± 7.7% and the viability at 24 h, 1.5 mM ([3]; 1.5 mM palmitic acid) was 69.9 ± 7.4%. The viability at 24 h, 1.75 mM ([3]; 1.75 mM palmitic acid (autophagic dose)) was 60.6 ± 11.6%, the viability at 24 h, 2 mM ([3]; 2 mM palmitic acid (apoptotic dose)) was 50.1 ± 11% and the viability at 24 h, 2.25 mM ([3]; 2.25 mM palmitic acid) was 58.4 ± 11.5%. The viability at 24 h, 2.5 mM ([3]; 2.5 mM palmitic acid) was 49.9 ± 3%, the viability at 24 h, 2.75 mM ([3]; 2.75 mM palmitic acid) was 62.9 ± 4.3% and the viability at 24 h, 3 mM ([3]; 3 mM palmitic acid (necrotic dose)) was 36.5 ± 3.3%. It also gave a viability at 24 h, 3.25 mM ([3]; 3.25 mM palmitic acid) of 44.1 ± 8.7%, a viability at 24 h, 3.5 mM ([3]; 3.5 mM palmitic acid) of 39.4 ± 11.4% and a viability at 24 h, 3.75 mM ([3]; 3.75 mM palmitic acid) of 42.9 ± 8.2%. For the same compound, the viability at 24 h, 4 mM ([3]; 4 mM palmitic acid (necrotic dose)) was 41 ± 6.6%, the viability at 24 h, 4.25 mM ([3]; 4.25 mM palmitic acid) was 44.9 ± 11.8% and the viability at 24 h, 4.5 mM ([3]; 4.5 mM palmitic acid) was 37.3 ± 10.5%. For the same compound, the viability at 24 h, 4.75 mM ([3]; 4.75 mM palmitic acid) was 35.7 ± 3.7%, the viability at 24 h, 5 mM ([3]; 5 mM palmitic acid) was 42.1 ± 4.4% and the cell death (INS-1 cells [4]) was 50%.

Source: EP3351262A1, “CURAGLUTIDE FOR IN TREATMENT OF PREDIABETES, DIABETES, OBESITY AND METABOLIC DISEASES ASSOCIATED THERETO” (Istanbul Universitesi Rektorlugu, priority 2016, dated 2018)
